The experiment concerns the target T1, PKC γ (Homo sapiens, UniProt P05129).
T1 construct: purchased BIOMOL SE-143; host or cells: insect cells
The experiment can be described thus: Kinase selectivity assay PKC γ. The experiment is classed as biochemical. On the procedure: Assays to test compound inhibition of other kinases were preformed using methods that measure the amount of phosphorylation of a biotinylated peptide substrate. Biotinylated peptide substrates were selected from the literature as appropriate for the enzyme being evaluated. The general procedure used to assay for kinase activity is as follows: a kinase reaction mix was prepared in 50 mM Tris-HCl pH=8, 10 mM MgCl2, 0.1 mM Na3VO4, 1 mM DTT, 10 μM ATP, 0.25–1 μM biotinylated peptide substrate, 0.2–0.8 μCuries per well ^33P-γ-ATP (2000–3000 Ci/mmol). Assay conditions vary slightly for each protein kinase, for example, insulin receptor kinase requires 10 mM MnCl2 for activity and Calmodulin-dependent protein kinase requires calmodulin and 2 mM CaCl2. The reaction mixture was dispensed into the wells of a streptavidin coated Flashplate and 1 μL test compound in 100% DMSO was added to a 100 μL reaction volume resulting in a final concentration of 1% DMSO in the reaction. Enzyme was diluted in 50 mM Tris-HCl pH=8.0, 0.1% BSA and added to each well. The reaction was incubated for one hour at 30° C. in the presence of a test compound. […] The plate was read on a scintillation counter to determine ^33P-γ-ATP incorporated into the immobilized peptide substrate. […] A maximum and minimum signal for the assay was determined on each plate. […]

The molecule `OCCCNc1cncc(-c2ncnc(Nc3cccc(Cl)c3)n2)c1` [Compound 1, 3-((5-(4-((3-chlorophenyl)amino)-1,3,5-triazin-2-yl)-3-pyridinyl)amino)-1-propanol] had an IC50 above 100 µM.

For the origin of these results see US7205298B2, “Substituted triazine kinase inhibitors” (Janssen Pharmaceutica N.V., priority 2002, dated 2007).
